From patent US10526336B2, “Fused heteroaryl derivatives as orexin receptor antagonists” (Merck Sharp & Dohme Corp., priority 2014, dated 2020) come the findings set out here.

The structures appear in SMILES notation.

What is called IC50 is the midpoint of a concentration-inhibition curve.

The target in this assay is human orexin-2 receptor (Homo sapiens (Human), UniProt O43614). Kind of assay: FLIPR Ca2+ Flux Assay, orexin-2 receptor antagonism in CHO cells. The assay is classed as cell-based. The note with it: CHO cells expressing the human orexin-2 receptor; agonist 70 pM Ala-6,12 orexin-A; read-out: hOX2 FLIPR IC50. As for the experimental part: The utility of the compounds in accordance with the present invention as orexin receptor OX1R and/or OX2R antagonists may be readily determined without undue experimentation by methodology well known in the art, including the “FLIPR Ca^2+ Flux Assay” (Okumura et al., Biochem. Biophys. Res. Comm. 280:976-981, 2001). In a typical experiment the OX1 and OX2 receptor antagonistic activity of the compounds of the present invention was determined in accordance with the following experimental method. For intracellular calcium measurements, Chinese hamster ovary (CHO) cells expressing the rat orexin-1 receptor or the human orexin-2 receptor, are grown in Iscove's modified DMEM containing 2 mM L-glutamine, […], 1% hypoxanthine-thymidine supplement, 100 U/ml penicillin, 100 μg/ml streptomycin and 10% heat-inactivated fetal calf serum (FCS). The cells are seeded at 20,000 cells/well into Becton-Dickinson black 384-well clear bottom sterile plates coated with poly-D-lysine. All reagents are from GIBCO-Invitrogen Corp. The seeded plates are incubated overnight at 37° C. and 5% CO2. Ala-6,12 human orexin-A as the agonist is prepared as a 1 mM stock solution in 1% bovine serum albumin (BSA) and diluted in assay buffer (HBSS containing 20 mM HEPES, 0.1% BSA and 2.5 mM probenecid, pH7.4) for use in the assay at a final concentration of 70 pM. Test compounds are prepared as 10 mM stock solution in DMSO, then diluted in 384-well plates, first in DMSO, then assay buffer. On the day of the assay, cells are washed 3 times with 100 μl assay buffer and then incubated for 60 min (37° C., 5% CO2) in 60 μl assay buffer containing […] Fluo-4AM ester, 0.02% pluronic acid, and 1% BSA. The dye loading solution is then aspirated and cells are washed 3 times with 100 μl assay buffer. 30 μl of that same buffer is left in each well. Within the Fluorescent Imaging Plate Reader (FLIPR, Molecular Devices), test compounds are added to the plate in a volume of 25 μl, incubated for 5 min and finally 25 μl of agonist is added. Fluorescence is measured for each well at 1 second intervals for 5 minutes and the height of each fluorescence peak is compared to the height of the fluorescence peak induced by 70 pM Ala-6,12 orexin-A with buffer in place of antagonist. For each antagonist, IC50 value (the concentration of compound needed to inhibit 50% of the agonist response) is determined. Alternatively, compound potency can be assessed by a radioligand binding assay (described in Bergman et. al. Bioorg. Med. Chem. Lett. 2008, 18, 1425-1430) in which the inhibition constant (Ki) is determined in membranes prepared from CHO cells expressing either the OX1 or OX2 receptor. The intrinsic orexin receptor antagonist activity of a compound which may be used in the present invention may be determined by these assays.
human orexin-2 receptor, sequence (O43614 whole entry): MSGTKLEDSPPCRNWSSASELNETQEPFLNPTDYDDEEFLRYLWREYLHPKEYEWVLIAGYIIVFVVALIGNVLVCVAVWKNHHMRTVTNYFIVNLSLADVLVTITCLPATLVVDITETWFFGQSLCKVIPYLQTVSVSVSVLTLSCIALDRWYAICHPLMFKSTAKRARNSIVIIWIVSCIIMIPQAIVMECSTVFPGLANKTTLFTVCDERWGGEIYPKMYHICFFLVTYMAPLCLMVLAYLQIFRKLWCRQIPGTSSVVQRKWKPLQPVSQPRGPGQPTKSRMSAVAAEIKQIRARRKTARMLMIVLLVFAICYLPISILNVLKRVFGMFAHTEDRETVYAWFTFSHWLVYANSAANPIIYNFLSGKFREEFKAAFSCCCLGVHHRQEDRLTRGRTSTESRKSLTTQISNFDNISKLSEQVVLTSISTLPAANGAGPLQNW
A general note: A change in cytosolic calcium serves as a functional read-out for many receptors and channels.
Regarding `C[C@@H]1CC[C@@H](Oc2nccn3c(C(F)F)cnc23)CN1C(=O)c1cccnc1OCC(F)(F)F` [Example 50, ((2R,5R)-5-((3-(difluoromethyl)imidazo[1,2-α]pyrazin-8-yl)oxy)-2-methylpiperidin-1-yl)(2-(2,2,2-trifluoroethoxy)pyridin-3-yl)methanone], the half-maximal inhibitory concentration (IC50) stood at 26.5 nM.

With `C[C@@H]1CC[C@@H](Oc2nccn3c(C(F)F)cnc23)CN1C(=O)c1cccnc1OCC(F)F` [Example 51, (2-(2,2-difluoroethoxy)pyridin-3-yl)((2R,5R)-5-((3-(difluoromethyl)imidazo[1,2-α]pyrazin-8-yl)oxy)-2-methylpiperidin-1-yl) methanone], the IC50 was 31.8 nM. With `C[C@@H]1CC[C@@H](Oc2nccn3c(C(F)F)cnc23)CN1C(=O)c1cccnc1-n1cccn1` [Example 52, (2-(1H-pyrazol-1-yl)pyridin-3-yl)((2R,5R)-5-((3-(difluoromethyl)imidazo[1,2-α]pyrazin-8-yl)oxy)-2-methylpiperidin-1-yl)methanone] the figure was 15.8 nM; with `C[C@@H]1CC[C@@H](Oc2nccn3c(C(F)F)cnc23)CN1C(=O)c1ccccc1-c1cnccn1` [Example 53, ((2R,5R)-5-((3-(difluoromethyl)imidazo[1,2-α]pyrazin-8-yl)oxy)-2-methylpiperidin-1-yl)(2-(pyrazin-2-yl)phenyl)methanone], 21.3 nM. With `C[C@@H]1CC[C@@H](Oc2nccn3c(C(F)F)cnc23)CN1C(=O)c1ccccc1-c1ncccn1` [Example 54, ((2R,5R)-5-((3-(difluoromethyl)imidazo[1,2-a]pyrazin-8-yl)oxy)-2-methylpiperidin-1-yl)(2-(pyrimidin-2-yl)phenyl)methanone] the figure was 24.1 nM; with `C[C@@H]1CC[C@@H](Oc2nccn3c(C(F)F)cnc23)CN1C(=O)c1cscc1-c1ncccn1` [Example 55, ((2R,5R)-5-((3-(difluoromethyl)imidazo [1,2-α]pyrazin-8-yl)oxy)-2-methylpiperidin-1-yl)(4-(pyrimidin-2-yl)thiophen-3-yl)methanone], 44.9 nM; with `C[C@@H]1CC[C@@H](Oc2nccn3c(C(F)F)cnc23)CN1C(=O)c1ccsc1-c1ncccn1` [Example 56, ((2R,5R)-5-((3 (difluoromethyl)imidazo [1,2-α]pyrazin-8-yl)oxy)-2-methylpiperidin-1-yl)(2-(pyrimidin-2-yl)thiophen-3-yl)methanone], 53.7 nM.

For the compound `C[C@@H]1CC[C@@H](Oc2nccn3c(C(F)(F)F)cnc23)CN1C(=O)c1ccccc1-n1nccn1` [Example 57], the concentration for half-maximal inhibition (IC50) worked out at 13.1 nM. Then `C[C@@H]1CC[C@@H](Oc2nccn3c(C(F)(F)F)cnc23)CN1C(=O)c1ccsc1-n1nccn1` [Example 58, (2-(2H-1,2,3-triazol-2-yl)thiophen-3-yl)((2R,5R)-2-methyl-5-((3-(trifluoromethyl)imidazo[1,2-a]pyrazin-8-yl)oxy)piperidin-1-yl)methanone], with 20.4 nM; and `C[C@@H]1CC[C@@H](Oc2nccn3c(C(F)(F)F)cnc23)CN1C(=O)c1ccccc1C1(C#N)CC1` [Example 59, 1-(2-((2R,5R)-2-methyl-5-((3-(trifluoromethyl)imidazo [1,2-α]pyrazin-8-yl)oxy)piperidine-1-carbonyl)phenyl) cyclopropanecarbonitrile], with 12.8 nM; and `C[C@@H]1CC[C@@H](Oc2nccn3c(C(F)(F)F)cnc23)CN1C(=O)c1ccccc1-n1ncnn1` [Example 60, (2-(2H-tetrazol-2-yl)phenyl)((2R,5R)-2-methyl-5-((3-(trifluoromethyl)imidazo [1,2-α]pyrazin-8-yl)oxy)piperidin-1-yl)methanone], with 19 nM. Then `C[C@@H]1CC[C@@H](Oc2nccn3c(C(F)(F)F)cnc23)CN1C(=O)c1ccccc1CS(C)(=O)=O` [Example 61, ((2R,5R)-2-methyl-5-((3-(trifluoromethyl)imidazo [1,2-α]pyrazin-8-yl)oxy)piperidin-1-yl)(2-((methylsulfonyl)methyl)phenyl)methanone], with 170 nM; and `C[C@@H]1CC[C@@H](Oc2nccn3c(C(F)(F)F)cnc23)CN1C(=O)c1ncccc1-c1ccccc1` [Example 62, ((2R,5R)-2-methyl-5-((3-(trifluoromethyl)imidazo [1,2-α]pyrazin-8-yl)oxy)piperidin-1-yl)(3-phenylpyridin-2-yl)methanone], with 46.7 nM; and `C[C@@H]1CC[C@@H](Oc2nccn3c(C(F)(F)F)cnc23)CN1C(=O)c1cccnc1OCC(F)(F)F` [Example 63, ((2R,5R)-2-methyl-5-((3-(trifluoromethyl)imidazo [1,2-α]pyrazin-8-yl)oxy)piperidin-1-yl) (2-(2,2,2-trifluoroethoxy)pyridin-3-yl)methanone], with 28.2 nM. With `C[C@@H]1CC[C@@H](Oc2nccn3c(C(F)(F)F)cnc23)CN1C(=O)c1cccnc1OCC(F)F` [Example 64, (2-(2,2-difluoroethoxy)pyridin-3-yl)((2R,5R)-2-methyl-5-((3-(trifluoromethyl)imidazo [1,2-α]pyrazin-8-yl)oxy)piperidin-1-yl)methanone] the figure was 17.4 nM; with `C[C@@H]1CC[C@@H](Oc2nccn3c(C(F)(F)F)cnc23)CN1C(=O)c1cccnc1-n1cccn1` [Example 65, (2-(1H-pyrazol-1-yl)pyridin-3-yl) ((2R,5R)-2-methyl-5-((3-(trifluoromethyl)imidazo [1,2-α]pyrazin-8-yl)oxy)piperidin-1-yl)methanone], 24 nM; with `C[C@@H]1CC[C@@H](Oc2nccn3c(C(F)(F)F)cnc23)CN1C(=O)c1ccccc1-c1ncccn1` [Example 66, ((2R,5R)-2-methyl-5-((3-(trifluoromethyl)imidazo[1,2-a]pyrazin-8-yl)oxy)piperidin-1-yl)(2-(pyrimidin-2-yl)phenyl)methanone], 14.9 nM.

For the compound `C[C@@H]1CC[C@@H](Oc2nccn3c(C(O)C(F)F)cnc23)CN1C(=O)c1ccccc1-n1nccn1` (stereo partly drawn) [Example 67, (2-(2H-1,2,3-triazol-2-yl)phenyl)((2R,5R)-5-((3-(2,2-difluoro-1-hydroxyethyl)imidazo[1,2-a]pyrazin-8-yl)oxy)-2-methylpiperidin-1-yl)methanone], the half-inhibitory concentration (IC50) was determined as 182 nM. With `CC(O)c1cnc2c(O[C@@H]3CC[C@@H](C)N(C(=O)c4ccccc4-n4nccn4)C3)nccn12` (stereo partly drawn) [Example 68, (2-(2H-1,2,3-triazol-2-yl)phenyl)((2R,5R)-5-((3-(1-hydroxyethyl)imidazo[1,2-a]pyrazin-8-yl)oxy)-2-methylpiperidin-1-yl)methanone] the figure was 115 nM. With `C[C@@H]1CC[C@@H](Oc2nccn3nccc23)CN1C(=O)c1ccccc1-n1nccn1` [Example 69, (2-(2H-1,2,3-triazol-2-yl)phenyl)((2R,5R)-2-methyl-5-(pyrazolo[1,5-a]pyrazin-4-yloxy)piperidin-1-yl)methanone] the figure was 26.8 nM; with `C[C@@H]1CC[C@@H](Oc2nccn3nccc23)CN1C(=O)c1ccsc1-n1nccn1` [Example 70, (2-(2H-1,2,3-triazol-2-yl)thiophen-3-yl)((2R,5R)-2-methyl-5-(pyrazolo[1,5-a]pyrazin-4-yloxy)piperidin-1-yl)methanone], 9.8 nM. With `C[C@@H]1CC[C@@H](Oc2nccn3nccc23)CN1C(=O)c1cscc1-n1nccn1` [Example 71, (4-(2H-1,2,3-triazol-2-yl)thiophen-3-yl)((2R,5R)-2-methyl-5-(pyrazolo[1,5-α]pyrazin-4-yloxy)piperidin-1-yl)methanone], the IC50 was 16 nM. `C[C@@H]1CC[C@@H](Oc2nccn3nccc23)CN1C(=O)c1ccccc1C1(C#N)CC1` [Example 72, 1-(2-((2R,5R)-2-methyl-5-(pyrazolo[1,5-α]pyrazin-4-yloxy)piperidine-1-carbonyl)phenyl) cyclopropanecarbonitrile]: the IC50 worked out at 14.3 nM. With `C[C@@H]1CC[C@@H](Oc2nccn3nccc23)CN1C(=O)c1ccc(F)cc1-n1nccn1` [Example 73, (4-fluoro-2-(2H-1,2,3-triazol-2-yl)phenyl)((2R,5R)-2-methyl-5-(pyrazolo[1,5-α]pyrazin-4-yloxy)piperidin-1-yl)methanone] the figure was 14 nM.
